Where “and” joins values, the source holds several entries; their conditions need not be identical. Equal values may be shown once.
System: S. aureus strain UNT144-3
Assay: S. aureus neutropenic lung model (murine pneumonia model)
Type: in vivo, Staphylococcus aureus
Details: neutropenic mice, 100 mg/kg SC at 2 and 6 hrs post-infection, CFU assessed 24 hr
Protocol: In a non-limiting example, the sensitivity of two S. aureus clinical isolates, UNT109-3 (NRS234, native valve endocarditis) and UNT144-3, that have been previously utilized in animal models of infection, was evaluated vs. the individual phage and the 4-phage cocktail. […] The virulence of the two strains was then evaluated in the murine lung infection model. Female Hsd:ICR(CD-1) mice (Harlan Laboratories, Houston, Tex.) were administered 150 and 100 mg/kg cyclophosphamide on day −4 and day −1 prior to infection to render them neutropenic. Groups of 5 mice were then anaesthetized by intraperitoneal (IP) injection of 0.15 mL of a mixture of ketamine HCl (100 mg/kg body weight) plus xylazine (10 mg/kg body weight). Once anaesthetized, mice were infected intranasally by placing drops on the external nares and allowing inhalation of the 50 μl inoculum. Twenty-four hours after infection, mice were euthanized by CO2 inhalation and lungs processed for bacterial titers. Bacterial counts were enumerated on Brain Heart Infusion agar (Difco™ Laboratories)+0.5% activated charcoal (Sigma-Aldrich) plates for ease of recovering and detecting S. aureus (Barr, J. G., et al., J Clin. Pathol. (1987) 40:372-376). […]
Three phage cocktail treatment groups were evaluated for efficacy: 2×10^10 PFU/mL per phage, 2×10^9 PFU/mL per phage, and 2×10^8 PFU/mL per phage. […]

For CN[C@H](CC(C)C)C(=O)N[C@H]1C(=O)N[C@@H](CC(N)=O)C(=O)N[C@H]2C(=O)N[C@H]3C(=O)N[C@H](C(=O)N[C@H](C(=O)O)c4cc(O)cc(O)c4-c4cc3ccc4O)[C@H](O)c3ccc(c(Cl)c3)Oc3cc2cc(c3O[C@@H]2O[C@H](CO)[C@@H](O)[C@H](O)[C@H]2O[C@H]2C[C@](C)(N)[C@H](O)[C@H](C)O2)Oc2ccc(cc2Cl)[C@H]1O [Vancomycin], the “Mean ± SD logo CFU/Lung Pair” value was 5.55 log10 CFU/lung pair and 5.55 ± 1.1 log10 CFU/lung pair.

From patent publication US11253557B2, “Therapeutic bacteriophage compositions” (priority 2015, dated 2022)
